{"source": "patent US20230002327A1", "about": "“SMALL-MOLECULE REGULATOR OF TLR8” (TSINGHUA UNIVERSITY, priority 2019, published 2023)", "key": {"TLR8": {"biological_target": "T1, TLR8 (Homo sapiens, UniProt Q9NR97)", "T1 construct": "host or cells: HEK-Blue hTLR8 (HEK293-derived SEAP reporter cells)", "T1 sequence (Q9NR97 27-1041)": "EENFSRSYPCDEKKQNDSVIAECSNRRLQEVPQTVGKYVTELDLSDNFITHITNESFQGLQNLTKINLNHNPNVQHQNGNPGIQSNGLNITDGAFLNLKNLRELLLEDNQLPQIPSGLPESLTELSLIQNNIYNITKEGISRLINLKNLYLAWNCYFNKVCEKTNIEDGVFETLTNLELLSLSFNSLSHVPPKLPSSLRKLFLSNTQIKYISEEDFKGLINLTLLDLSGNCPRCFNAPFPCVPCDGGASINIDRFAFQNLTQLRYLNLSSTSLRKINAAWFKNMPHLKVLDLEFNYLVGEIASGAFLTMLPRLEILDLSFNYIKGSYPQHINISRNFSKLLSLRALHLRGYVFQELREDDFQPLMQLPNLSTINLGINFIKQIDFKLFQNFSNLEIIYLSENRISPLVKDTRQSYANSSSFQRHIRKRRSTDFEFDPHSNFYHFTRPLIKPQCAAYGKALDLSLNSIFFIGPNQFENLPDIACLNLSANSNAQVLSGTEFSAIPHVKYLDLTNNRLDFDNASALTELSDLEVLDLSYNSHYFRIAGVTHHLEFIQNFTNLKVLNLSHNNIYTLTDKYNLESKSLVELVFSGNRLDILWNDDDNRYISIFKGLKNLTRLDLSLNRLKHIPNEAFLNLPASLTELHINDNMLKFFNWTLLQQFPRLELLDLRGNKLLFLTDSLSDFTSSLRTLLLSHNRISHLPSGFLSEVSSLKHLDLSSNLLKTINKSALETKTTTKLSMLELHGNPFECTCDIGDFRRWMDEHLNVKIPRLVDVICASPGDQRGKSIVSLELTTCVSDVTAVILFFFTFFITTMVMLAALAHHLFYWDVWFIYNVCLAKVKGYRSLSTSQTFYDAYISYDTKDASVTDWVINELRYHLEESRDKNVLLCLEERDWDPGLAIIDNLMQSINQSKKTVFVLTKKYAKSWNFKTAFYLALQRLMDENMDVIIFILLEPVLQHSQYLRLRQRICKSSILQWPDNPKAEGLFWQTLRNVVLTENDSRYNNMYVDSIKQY", "test": "Inhibition of R848-induced signaling in HEK-Blue hTLR8 cell line (Quanti-Blue)", "format": "cell-based", "conditions": "HEK-Blue hTLR8 cell line; normalized, ligand+DMSO = 100% activity, untreated = 0%", "description": "(§1) HEK Blue hTLR8 cells or HEK Blue hTLR7 cells were cultured in DMEM medium supplemented with 10% fetal bovine serum, penicillin (100 U/mL) and streptomycin ([…]). Thereafter, cells were seeded in 96-well plate (45,000 cells per well), and were cultured for 24 hours in a humidified incubator (37° C., 5% CO2).\nAfter 24 hours, the supernatant and suspending cells were aspirated and replaced with fresh serum-free DMEM.\n(§2) After 24 hours, 50 μL of the medium was aspirated from each well and then added to a new 96-well plate, followed by the addition of 50 μL of Quanti-Blue in each well and the incubation at 37° C. in darkness. Changes in color would occur in the […] within 60 minutes, and the absorbance was measured at 620 nm by using the multi-mode plate reader Vrioskan Flash. Inhibition rate (%)=[R848 (OD620)−Compound (OD620)]/[R848 (OD620)−Control (OD620)]×100%. Among these, the control group was only added with the same amount of cells. Finally, the software Prism 6.0 was utilized to plot a graph and calculate IC50 values. Or, the activity of the cells treated with ligand and DMSO was defined as 100% activity, and the activity of the untreated cells was defined as 0% activity."}, "TLR7": {"biological_target": "T2, TLR7 (Homo sapiens, UniProt Q9NYK1)", "T2 construct": "host or cells: HEK-Blue hTLR7 (HEK293-derived SEAP reporter cells)", "T2 sequence (Q9NYK1 27-1049)": "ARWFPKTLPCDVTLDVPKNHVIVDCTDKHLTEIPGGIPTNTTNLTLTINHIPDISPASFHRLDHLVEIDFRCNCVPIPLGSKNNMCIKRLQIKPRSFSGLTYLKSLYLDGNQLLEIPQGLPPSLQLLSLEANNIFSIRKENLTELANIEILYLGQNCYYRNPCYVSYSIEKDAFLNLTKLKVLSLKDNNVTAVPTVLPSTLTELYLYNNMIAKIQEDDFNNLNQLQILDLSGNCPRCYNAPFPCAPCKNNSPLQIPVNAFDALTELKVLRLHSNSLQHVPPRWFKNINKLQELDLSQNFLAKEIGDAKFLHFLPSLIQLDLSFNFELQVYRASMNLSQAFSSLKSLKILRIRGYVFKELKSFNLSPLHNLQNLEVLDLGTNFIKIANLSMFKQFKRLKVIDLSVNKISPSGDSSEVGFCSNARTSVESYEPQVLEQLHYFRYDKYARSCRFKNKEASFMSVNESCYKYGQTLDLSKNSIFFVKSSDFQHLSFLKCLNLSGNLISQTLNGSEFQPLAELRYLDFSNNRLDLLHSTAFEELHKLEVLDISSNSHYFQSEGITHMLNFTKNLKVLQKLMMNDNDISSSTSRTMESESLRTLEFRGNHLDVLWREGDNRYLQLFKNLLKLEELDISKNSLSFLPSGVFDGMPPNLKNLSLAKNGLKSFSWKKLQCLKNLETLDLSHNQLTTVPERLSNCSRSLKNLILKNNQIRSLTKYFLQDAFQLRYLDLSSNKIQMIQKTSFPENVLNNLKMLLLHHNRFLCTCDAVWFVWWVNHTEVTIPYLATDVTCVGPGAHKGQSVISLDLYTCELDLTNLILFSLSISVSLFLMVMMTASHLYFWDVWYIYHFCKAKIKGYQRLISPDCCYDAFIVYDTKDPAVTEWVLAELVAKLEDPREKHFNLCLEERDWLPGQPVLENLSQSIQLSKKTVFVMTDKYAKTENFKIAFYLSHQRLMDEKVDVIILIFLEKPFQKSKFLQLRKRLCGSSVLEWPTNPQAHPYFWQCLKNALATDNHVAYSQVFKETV", "test": "Inhibition of R848-induced signaling in HEK-Blue hTLR7 cell line (Quanti-Blue)", "format": "cell-based", "description": "as §1\nAfter 24 hours, the supernatant and suspending cells were aspirated and replaced with fresh serum-free DMEM. Cells were treated with 1 μg/mL of R848 (agonist of TLR7/8) or 5 μg/mL of ssRNA40/LyoVec or 5 μg/mL of ORN06/LyoVec (InvivoGen) and compounds with specified concentrations, and were placed in a humidified incubator (37° C., 5% CO2) for co-culture.\nas §2"}, "HEK-Blue hTLR8 cell line": {"tested_on": "HEK-Blue hTLR8 cell line", "test": "Toxicity test of compounds (CCK-8 cell viability)", "format": "cell-based, human", "design": "key to WST1 (normalized toxicity effect): viability relative to control well (background-subtracted OD), 1 = control", "conditions": "normalized cell viability, HEK-Blue cell lines", "description": "In the 96-well plate used for the above-mentioned activity test of compounds (remaining 50 μL of culture medium containing cells), 5 μL of CellCountingKit-8 (CCK-8) Supermix was added to each well. Note that the introduction of air bubbles into the wells should be avoided since the air bubbles would interfere with the detection of OD value.\nThe culture plate was incubated in an incubator for 1 to 4 hours,\nThe edge of the 96-well plate could be tapped gently before reading the plate, and then the absorbance at 450 nm was measured by using the multi-mode plate reader.\nCell viability (%) was determined using the following formula: cell viability (%)=([Compound well ([…])−Background well (OD450)]/[Control well ([…])−Background well (OD450)])×100%. Among these, the background well was only added with the medium and CCK-8 reagent, the control well was only added with the medium, cells, R848 and CCK-8, and the compound wells were added with the medium, cells, R848, compounds in different concentrations, and CCK-8."}}, "data": [{"smiles": "CCOCc1nc(C(=O)O)c(-c2ccccc2)n1CC(C)(C)O", "note": "[Compound 54, 2-(ethoxymethyl)-1-(2-hydroxy-2-methylpropyl)-5-phenyl-1H-imidazole-4-carboxylic acid]", "values": [{"measurement": "Remaining R848-induced TLR8 signaling (normalized activity; ligand+DMSO = 1, untreated = 0)", "setting": "TLR8", "value": "0.9 ± 0.2"}, {"measurement": "TLR7 (normalized inhibitory effect on R848-induced signaling)", "setting": "TLR7", "value": "0.9 ± 0.2"}, {"measurement": "WST1 (normalized toxicity effect)", "setting": "HEK-Blue hTLR8 cell line", "value": "1.1 ± 0.3"}]}, {"smiles": "CCOCc1ncc(-c2ccccc2)n1CC(C)C", "note": "[Compound 55, 2-(ethoxymethyl)-1-(2-methylpropyl)-5-phenyl-1H-imidazole]", "values": [{"measurement": "Remaining R848-induced TLR8 signaling (normalized activity; ligand+DMSO = 1, untreated = 0)", "setting": "TLR8", "value": "0.8 ± 0.1"}, {"measurement": "TLR7 (normalized inhibitory effect on R848-induced signaling)", "setting": "TLR7", "value": "0.6 ± 0.2"}, {"measurement": "WST1 (normalized toxicity effect)", "setting": "HEK-Blue hTLR8 cell line", "value": "0.9 ± 0.3"}]}, {"smiles": "CCOCc1nc(Cl)c(-c2ccccc2)n1CC(C)C", "note": "[Compound 56, 4-chloro-2-(ethoxymethyl)-1-(2-methylpropyl)-5-phenyl-1H-imidazole]", "values": [{"measurement": "Remaining R848-induced TLR8 signaling (normalized activity; ligand+DMSO = 1, untreated = 0)", "setting": "TLR8", "value": "0.5 ± 0.2"}, {"measurement": "TLR7 (normalized inhibitory effect on R848-induced signaling)", "setting": "TLR7", "value": "0.6 ± 0.2"}, {"measurement": "WST1 (normalized toxicity effect)", "setting": "HEK-Blue hTLR8 cell line", "value": "0.7 ± 0.2"}]}, {"smiles": "CCOCc1nc(Br)c(-c2ccccc2)n1CC(C)C", "note": "[Compound 57, 4-bromo-2-(ethoxymethyl)-1-(2-methylpropyl)-5-phenyl-1H-imidazole]", "values": [{"measurement": "Remaining R848-induced TLR8 signaling (normalized activity; ligand+DMSO = 1, untreated = 0)", "setting": "TLR8", "value": "0.01 ± 0.01"}, {"measurement": "TLR7 (normalized inhibitory effect on R848-induced signaling)", "setting": "TLR7", "value": "0.1 ± 0.1"}, {"measurement": "WST1 (normalized toxicity effect)", "setting": "HEK-Blue hTLR8 cell line", "value": "0.7 ± 0.1"}]}, {"smiles": "CCOCc1nc(I)c(-c2ccccc2)n1CC(C)C", "note": "[Compound 58, 2-(ethoxymethyl)-4-iodo-1-(2-methylpropyl)-5-phenyl-1H-imidazole]", "values": [{"measurement": "Remaining R848-induced TLR8 signaling (normalized activity; ligand+DMSO = 1, untreated = 0)", "setting": "TLR8", "value": "0.01 ± 0.01"}, {"measurement": "TLR7 (normalized inhibitory effect on R848-induced signaling)", "setting": "TLR7", "value": "0.1 ± 0.2"}, {"measurement": "WST1 (normalized toxicity effect)", "setting": "HEK-Blue hTLR8 cell line", "value": "0.3 ± 0.2"}]}, {"smiles": "CCOCc1nc(I)c(-c2ccc(-c3ccccc3)cc2)n1CC(C)(C)O", "note": "[Compound 60, 1-(5-([1,1′-biphenyl]-4-yl)-2-(ethoxymethyl)-4-iodo-1H-imidazole-1-yl)-2-methylpropan-2-ol]", "values": [{"measurement": "Remaining R848-induced TLR8 signaling (normalized activity; ligand+DMSO = 1, untreated = 0)", "setting": "TLR8", "value": "0.3 ± 0.1"}, {"measurement": "TLR7 (normalized inhibitory effect on R848-induced signaling)", "setting": "TLR7", "value": "1.0 ± 0.1"}, {"measurement": "WST1 (normalized toxicity effect)", "setting": "HEK-Blue hTLR8 cell line", "value": "0.6 ± 0.1"}]}, {"smiles": "CCOCc1nc(I)c(-c2cccc(-c3ccccc3)c2)n1CC(C)(C)O", "note": "[Compound 61, 1-(5-([1,1′-biphenyl]-3-yl)-2-(ethoxymethyl)-4-iodo-1H-imidazole-1-yl)-2-methylpropan-2-ol]", "values": [{"measurement": "Remaining R848-induced TLR8 signaling (normalized activity; ligand+DMSO = 1, untreated = 0)", "setting": "TLR8", "value": "0.01 ± 0.01"}, {"measurement": "TLR7 (normalized inhibitory effect on R848-induced signaling)", "setting": "TLR7", "value": "0.9 ± 0.1"}, {"measurement": "WST1 (normalized toxicity effect)", "setting": "HEK-Blue hTLR8 cell line", "value": "0.9 ± 0.2"}]}, {"smiles": "CCOCc1nc(I)c(-c2cccc3ccccc23)n1CC(C)(C)O", "note": "[Compound 62, 1-(2-(ethoxymethyl)-4-iodo-5-(naphthalen-1-yl)-1H-imidazole-1-yl)-2-methylpropan-2-ol]", "values": [{"measurement": "Remaining R848-induced TLR8 signaling (normalized activity; ligand+DMSO = 1, untreated = 0)", "setting": "TLR8", "value": "0.06 ± 0.1"}, {"measurement": "TLR7 (normalized inhibitory effect on R848-induced signaling)", "setting": "TLR7", "value": "0.9 ± 0.1"}, {"measurement": "WST1 (normalized toxicity effect)", "setting": "HEK-Blue hTLR8 cell line", "value": "0.8 ± 0.1"}]}, {"smiles": "CCOCc1nc(I)c(-c2ccc3ccccc3c2)n1CC(C)(C)O", "note": "[Compound 63, 1-(2-(ethoxymethyl)-4-iodo-5-(naphthalen-2-yl)-1H-imidazole-1-yl)-2-methylpropan-2-ol]", "values": [{"measurement": "Remaining R848-induced TLR8 signaling (normalized activity; ligand+DMSO = 1, untreated = 0)", "setting": "TLR8", "value": "0.9 ± 0.1"}, {"measurement": "TLR7 (normalized inhibitory effect on R848-induced signaling)", "setting": "TLR7", "value": "0.9 ± 0.2"}, {"measurement": "WST1 (normalized toxicity effect)", "setting": "HEK-Blue hTLR8 cell line", "value": "1.0 ± 0.1"}]}, {"smiles": "CCOCc1nc(I)c(-c2ccc(C)cc2)n1CC(C)(C)O", "note": "[Compound 64, 1-(2-(ethoxymethyl)-4-iodo-5-(p-tolyl)-1H-imidazole-1-yl)-2-methylpropan-2-ol]", "values": [{"measurement": "Remaining R848-induced TLR8 signaling (normalized activity; ligand+DMSO = 1, untreated = 0)", "setting": "TLR8", "value": "0.9 ± 0.1"}, {"measurement": "TLR7 (normalized inhibitory effect on R848-induced signaling)", "setting": "TLR7", "value": "0.9 ± 0.2"}, {"measurement": "WST1 (normalized toxicity effect)", "setting": "HEK-Blue hTLR8 cell line", "value": "1.1 ± 0.1"}]}]}
